Results as given in patent US20060211725A1, “Use” (Astellas Pharma Inc., priority 2002, published 2006).
“And” between values parts separate entries of the source, which are not always exact repeats. Equal values may be shown once. “Also recorded” adds a separate entry of the source.

What was measured:
Assay type in all cases: in vivo, rat
[1] = system: F344 kidney allograft in LEW recipient rats; assay: Recipient kidney function: plasma creatinine and proteinuria (Example 1); conditions: weekly for 90 days
Procedure: (§1) Inbred male Lewis rats (LEW) (RT1^I), weighing 250-300 g, were used as kidney transplantation recipients. Inbred male LEW and Fisher (F344) (RT1^IvI), weighing 250-350 g, were used as isograft and allograft donor rats, respectively. Kidney transplantation was performed using the modified technique of Fisher and Lee. [Fisher et al., Surgery, 58:904-914, 1965] Survival of kidney transplant was measured as time of recipient rat survival. Blood and 24 hr urine samples were collected once a week for plasma creatinine, proteinuria, and the measurement of antibody titer against donor glomeruli basement membrane protein (GBM). Kidney grafts were harvested on the 90th day posttranspalantation and subjected to histology and reverse transcriptase-polymerase chain reaction (RT-PCR) analysis. The compound (I), at doses of 10 mg/kg and 20 mg/kg were administered orally to recipient rats daily from day 0 to day 9 after transplantation. Control isograft and allograft recipients received no drug after transplantation.
The recipient's kidney function was determined by measuring their plasma creatinine and proteinuria once a week for 90 days. Blood and urine samples were collected from recipients with kidney grafts described in the above. Plasma creatinine was tested by Sigma Creatinine Kit and proteinuria by Bio-Rad Protein assay.

[2] = system: F344 kidney allograft in LEW recipient rats; assay: Recipient kidney function, treatment with brief tacrolimus (Example 4)
Procedure: The rats and kidney transplantation methods described in Example 1 were used. Tacrolimus at dose of 1 mg/kg from day 0 to day 9 after transplantation, and the compound (I) at doses of 10 mg/kg and 15 mg/kg from day 28 today 60 after transplantation were administered orally to recipient rats. In this study LEW recipients were briefly treated with oral tacrolimus at 1 mg/kg/day for 10 days after transplantation to avoid acute rejection and slow chronic rejection that gradually destroys the F344 kidney graft, resulting in functional and histological changes similar to the chronic rejection in human. The isograft, untreated allograft and allograft treated with tacrolimus 1 mg/kg for 10 days alone served as control groups. Blood and urine samples were collected once a week from recipients with kidney grafts described in Example 1 for measuring their plasma creatinine and proteinuria. Plasma creatinine was tested by Sigma Creatinine Kit and proteinuria by Bio-Rad Protein assay.

TGFβ gene expression = assay: RT-PCR for TGFβ gene expression in kidney graft (Example 1); conditions: 10 and 20 mg/kg PO day 0-9; day 90 after grafting; vs untreated allograft control
Procedure: Inbred male Lewis rats (LEW) (RT1^I), weighing 250-300 g, were used as kidney transplantation recipients. Inbred male LEW and Fisher (F344) (RT1^IvI), weighing 250-350 g, were used as isograft and allograft donor rats, respectively. Kidney transplantation was performed using the modified technique of Fisher and Lee. [Fisher et al., Surgery, 58:904-914, 1965] Survival of kidney transplant was measured as time of recipient rat survival. Blood and 24 hr urine samples were collected once a week for plasma creatinine, proteinuria, and the measurement of antibody titer against donor glomeruli basement membrane protein (GBM). Kidney grafts were harvested on the 90th day posttranspalantation and subjected to histology and reverse transcriptase-polymerase chain reaction (RT-PCR) analysis. The compound (I), at doses of 10 mg/kg and 20 mg/kg were administered orally to recipient rats daily from day 0 to day 9 after transplantation. Control isograft and allograft recipients received no drug after transplantation. TGFβ has been considered to play a crucial role for causing chronic allograft rejection. Kidney graft tissues harvested from recipients on day 90th after transplantation were subjected to RT-PCR for TGFβ gene expression. Total RNA was extracted from transplanted kidney tissues by TRIZOL. […]

[3] = system: F344 kidney allograft in LEW recipient rats; assay: Recipient kidney function under rescue treatment of chronic rejection (Example 3)
Procedure: (§2) The rats and kidney transplantation methods described in Example 1 were used. […] The isograft and untreated allograft served as control groups. Blood and urine samples were collected once a week from recipients with kidney grafts described in Example 1 for measuring their plasma creatinine and proteinuria. Plasma creatinine was tested by Sigma Creatinine Kit and proteinuria by Bio-Rad Protein assay.

[4] = system: F344 kidney allograft in LEW recipient rats; assay: Kidney graft histology under rescue treatment, modified Banff criteria (Example 3)
Procedure: as §2
Using the methods described in Example 1, histological changes of chronic allograft rejection under rescue treatment of the compound (I) were analyzed. Histological sections were blindly evaluated by two histologists and scored semiquantitatively based on modified Banff' criteria for transplant pathology.

[5] = system: F344 kidney allograft in LEW recipient rats; assay: Kidney allograft survival, prevention of chronic rejection (Example 1); conditions: 0-9 day; for Survival day: individual rats, n=5; for Survival rate (more than 90 days): untreated allograft 40%
Procedure: as §1

[6] = rescue 20 mg/kg PO for 3 weeks from onset of raised creatinine or proteinuria, after drug discontinued
[7] = 20 mg/kg for 3 weeks during ongoing chronic rejection, vs untreated allograft control
[8] = rescue, From day 40-70 (20 mg/kg for 3 weeks), one line per rat
[9] = Compound (I) 10 mg/kg PO, 10 mg/kg

## C#CCC/C(O)=C(\C#N)C(=O)Nc1ccc(C(F)(F)F)cc1 [Compound (I), (2Z)-2-cyano-3-hydroxy-N-[4-(trifluoromethyl)phenyl]-2-hepten-6-ynamide]
[1]; 10 mg/kg PO day 0-9
  plasma creatinine: maintained normal creatinine
  proteinuria: undetectable proteinuria
[1]; 20 mg/kg PO day 0-9
  plasma creatinine: maintained normal creatinine
  proteinuria: undetectable proteinuria
[2]; Compound (I) 10 mg/kg day 28 to 60 after brief tacrolimus 1 mg/kg day 0-9
  proteinuria: decreased the progression of proteinuria
[2]; Compound (I) 10 mg/kg day 28 to 60 after brief tacrolimus 1 mg/kg day 0-9, entire study period
  plasma creatinine level: < 1.5 mg/dL
[2]; Compound (I) 15 mg/kg day 28 to 60 after brief tacrolimus 1 mg/kg day 0-9
  proteinuria: decreased the progression of proteinuria
[2]; Compound (I) 15 mg/kg/day day 28 to 60 after brief tacrolimus, increased from week 3 to week 9
  plasma creatinine: it was reversed and maintained in a normal level
TGFβ gene expression
  TGFβ gene expression (mRNA) in kidney graft: inhibited TGFβ gene expression in a dose-dependent manner
[3]; [6]
  plasma creatinine: tended to be at a normal level
  proteinuria: tended to be at a normal level
[3]; rescue 20 mg/kg PO for 3 weeks, immediate effect
  recipient kidney function: did not show an immediate improvement
[4]; [7]
  approximate cumulative reduction in Banff score: fibro-intimal hyperplasia: ~53%
  approximate cumulative reduction in Banff score: glomerulitis: ~38%
  approximate cumulative reduction in Banff score: interstitial inflammation: ~50%
  approximate cumulative reduction in Banff score: mesangiolysis: ~33%
  approximate cumulative reduction in Banff score: transplant glomerulopathy: ~89%
  approximate cumulative reduction in Banff score: tubular atrophy: ~42%
  approximate cumulative reduction in Banff score: tubulitis: ~70%
  approximate cumulative reduction in Banff score: vasculitis: ~92%
[4]; [8]
  Banff grade: Fibro-intimal Hyperplasia: ++ ((++):Grade 2, Moderate); also recorded: − ((−):Grade 0, Normal)
  Banff grade: Glomerulitis: + ((+):Grade 1, Mild); also recorded: − ((−):Grade 0, Normal); also recorded: ++ ((++):Grade 2, Moderate)
  Banff grade: Glomerulosclerosis: − ((−):Grade 0, Normal); also recorded: + ((+):Grade 1, Mild)
  Banff grade: Inflammation: + ((+):Grade 1, Mild); also recorded: ++ ((++):Grade 2, Moderate)
  Banff grade: Mesangiolysis: − ((−):Grade 0, Normal); also recorded: + ((+):Grade 1, Mild)
  Banff grade: Transplant Glomerulopathy: − ((−):Grade 0, Normal); also recorded: + ((+):Grade 1, Mild)
  Banff grade: Tubular Atrophy: − ((−):Grade 0, Normal); also recorded: + ((+):Grade 1, Mild)
  Banff grade: Tubulitis: − ((−):Grade 0, Normal)
  Banff grade: Vasculitis: +++ ((+++):Grade 3, Severe); also recorded: + ((+):Grade 1, Mild)
[5]; [9]
  Survival day: 28 days and > 90 days
  Survival rate (more than 90 days): 80%
[5]; Compound (I) 20 mg/kg PO
  Survival day: >90(5) day
[5]; Compound (I) 20 mg/kg PO, 20 mg/kg
  Survival rate (more than 90 days): 100%
